Laboratory results: patent US10718028B2, “Fluorescent probes for abasic site detection” (CASE WESTERN RESERVE UIVERSITY, priority 2015, dated 2020)

Tests used:
[1] = Absorption and emission spectra of AP site binding probes in ethanol; assay type: physicochemical
Experimental: NMR spectra were recorded on a Varian Mercury 300 MHz, a Varian Inova 400, and a Varian Inova 600 MHz spectrometer at room temperature, except where otherwise noted. Chemical shifts for 1H NMR were reported as 6, parts per million, and referenced to CHCl3 at 7.26 ppm or TMS at 0 ppm. Chemical shifts for ^13C NMR were reported as 6 and referenced to the center line of the CDCl3 triplet at 77.0 ppm or CH2Cl2 pentet at 54.0 ppm. Low resolution mass spectra were recorded on a ThermoScientific LCQ Advantage or a Finnigan LCQ Deca mass spectrometer. Fluorescence data were collected on a Varian Cary Eclipse fluorescence spectrophotometer in a quartz cuvette with a 1 cm pathlength or on a Tecan Infinite M200 scanner. Absorbance data were collected on a Varian Cary 50 Bio UV-Visible Spectrophotometer in a quartz cuvette with a 1 cm path length.
To characterize the fluorescent properties, the absorption and emission spectra were collected for all final compounds.

Aqueous solubility = assay type: physicochemical
AP DNA = experiment: SSB activity assay, dose-response of AP site binding probes; assay type: biochemical; settings: 5 pmol AP DNA, FIG. 1
Experimental: FIG. 1 illustrates SSB activity assay is used to compare the dose-response of AP site binding probes in 5 pmol of AP DNA. Mean and standard deviation of triplicate samples are shown for each concentration.
The single strand break (SSB) assay was proposed as a quick, facile tool to screen AP site binding probes. Therefore, the assay was performed on novel AP site binding probes described above and the commercially available AP site binding probe, F422. […] The reduced response of F422 and DansylMX may be due in part to the compounds being fairly electron rich near the aminooxy binding moiety. This could lead to a Coulombic repulsion with the DNA phosphate backbone.
SSB activity assays were performed on a 40-mer duplex DNA synthesized by IDT with the sequence:
SSB Activity Assay Control Reactions

DLD1 cells = experiment: AP site evaluation in FUDR treated DLD1 cells with Cy7MX; assay type: cell-based; settings: 72 h continuous FUDR exposure, UDG KD cells, DNA treated in vitro with UDG
Experimental: DLD1 cells (ATCC #CCL-221) were obtained from the laboratory of Sanford Markowitz at Case Western Reserve University. UDG directed shRNA clones and scrambled targeted control shRNA clones were purchased from Sigma-Aldrich. According to manufacturer's instructions from Lipofectamine 2000 (Invitrogen), HEK293 cells were transfected to produce lentiviral particles that were used to infect DLD1 cells. Forty-eight hours after transfection, DLD1 cells were diluted for passage and selected with puromycin. The UDG knockdown levels were verified by RT-PCR and Western blot analysis.
To allow for cell proliferation, the following approximate numbers of cells were plated for each time point given in parenthesis: 4 million (24 h), 1 million (48 h), and 0.3 million (72 h). Two mL of medium were removed from each plate and replaced with 2 mL of FUDR solution at a final concentration of 0, 10, 200, or 1000 nM in 10 mL. […]
Pure DNA pellets were dissolved in 200 μL 1×UDG buffer. […] DNA concentrations were measured and adjusted to a maximum of 300 μg/mL. Aliquots (125 μL) of the samples were added to a black, clear-bottom 96 well plate (Corning) and analyzed with 760 nm excitation and emission scan of 790-847 nm with a 3 nm step size. Integrated fluorescence intensities were adjusted to DNA concentration and normalized to the FUDR untreated KD+UDG sample.

[2] = in EtOH; cited from earlier work
[3] = in EtOH; cited from earlier work; remark: listed apart in the source
[4] = system: AP sites in calf thymus DNA; experiment: MX or ARP and Cy7MX genomic DNA competition assay; assay type: binding
Experimental: Calf thymus DNA was purchased from Sigma and was reconstituted overnight at 4° C. in either H2O or 500 mM MX (to eliminate basal AP sites) with gentle shaking (1.5 mL water or solution per 5 mg DNA). For samples reconstituted in MX solution, an ethanol precipitation was performed twice before heat and acid treatment (vide infra) then reconstituted in water. The DNA-water solution was aliquoted to 1.5 mL Eppendorf tubes (360 μL) and 10× Citrate buffer (1M NaCl, 100 μM monosodium phosphate, 100 μM monosodium citrate, pH 5.0) was added to a final concentration of 1×. For t=0 min samples, ice-cold 100% EtOH (1.0 mL) was added immediately and the Eppendorf tubes stored at −20° C. Other samples were placed in a 70° C. heating block for 15-90 minutes in 15-minute increments. Samples were removed from heat, precipitated in ice-cold 100% EtOH (1.0 mL), and then chilled at −20° C. for at least 20 minutes. Samples were centrifuged at 12,000×G for 10 min at 4° C. The supernatant was discarded. The process was repeated once beginning with the addition of EtOH (1.0 mL). The DNA pellet was dissolved in 700 μL H2O or TE buffer. Aliquots of 80 μL were put in 1.5 mL Eppendorf tubes. Any samples not used immediately were stored at −80° C.
Solutions of MX and Cy7MX were prepared in H2O varying [MX] from 0-1.9 M and maintaining at 25 μM. […] The ratios of MX:Cy7MX used in this study were: 0, 0.01, 0.1, 0.5, 1, 5, 10, 50, 100, 250, 500, 1000, 2500, 5000, 10000, 25000, 50000, and 75000. […] The following samples were prepared in triplicate: 20 μL of MX/Cy7MX solution was added to 80 μL aliquots of heat/acid treated DNA (t=45 min). Samples were incubated for 1 h at 37° C. in the dark. Ice-cold EtOH (1.0 mL) was added and the DNA was purified by EtOH precipitation three times as described in the heat/acid treatment of genomic DNA section. DNA was dissolved in 150 μL H2O. Aliquots (125 μL) of the samples were added to a black, clear-bottom 96 well plate (Corning) and analyzed with 750 nm excitation and 800 nm emission. Fluorescence was adjusted to DNA concentration.
As before (section 2.3.2) except solutions of ARP and Cy7MX were prepared in H2O varying [ARP] from 0-75 mM and maintaining at 1 μM. The ratios of ARP: Cy7MX used in this study were: 0, 0.1, 1, 10, 100, 500, 1000, 5000, 10000, 25000, 50000, and 75000.

[5] = system: AP sites in calf thymus DNA; experiment: MX and Cy7MX genomic DNA blocking assay; assay type: binding; settings: DNA pretreated with large excess of MX (1000×)
Experimental: FIG. 10 illustrates fluorescence response and MX blocking of Cy7MX. Calf thymus DNA treated with heat and acid for increments of 15 min to give a linear relative number of AP sites. AP DNA was then pretreated with MX (50 mM, +MX) or NaCl (50 mM, −MX) followed by incubation with Cy7MX (0.05 mM). Fluorescence measures show a linear response to Cy7MX when not blocked by MX.
Calf thymus DNA was purchased from Sigma and was reconstituted overnight at 4° C. in either H2O or 500 mM MX (to eliminate basal AP sites) with gentle shaking (1.5 mL water or solution per 5 mg DNA). For samples reconstituted in MX solution, an ethanol precipitation was performed twice before heat and acid treatment (vide infra) then reconstituted in water. The DNA-water solution was aliquoted to 1.5 mL Eppendorf tubes (360 μL) and 10× Citrate buffer (1M NaCl, 100 μM monosodium phosphate, 100 μM monosodium citrate, pH 5.0) was added to a final concentration of 1×. For t=0 min samples, ice-cold 100% EtOH (1.0 mL) was added immediately and the Eppendorf tubes stored at −20° C. […]
To 80 μL aliquots of DNA was added either 10 μL of MX (500 mM, pH 7) or vehicle control (500 mM NaCl). […] Aliquots (125 μL) of the samples were added to a black, clear-bottom 96 well plate (Corning) and analyzed with 700 nm excitation and 790 nm emission. Fluorescence was adjusted to DNA concentration.

Row | SMILES | Stokes shift [1] [nm] | λabs max [1] [nm] | λem max [1] [nm] | dose-response and overall efficacy in SSB assay (AP DNA) | further results
1 | NOCCCOc1ccc2cc(-c3ccc(N)cc3)c(=O)oc2c1 [ACMX, 7-(3-(aminooxy)propoxy)-3-(4-aminophenyl)-2H-chromen-2-one] | 80 | 370 | 450 | – | aqueous solubility (Aqueous solubility): poor aqueous solubility
2 | CCCN1/C(=C/C=C(/C=C/C2=[N+](CCC)c3ccccc3C2(C)C)c2ccc(C(=O)NCCCON)cn2)C(C)(C)c2ccccc21 [Cy5MX, 2-((1E,3Z)-3-(5-((3-(aminooxy)propyl)carbamoyl)pyridin-2-yl)-5-((E)-3,3-dimethyl-1-propylindolin-2-ylidene)penta-1,3-dien-1-yl)-3,3-dimethyl-1-propyl-3H-indol-1-ium 2,2,2-trifluoroacetate] | 20 | 640 | 660 | acceptable dose-response and overall efficacy | –
3 | CN(C)c1cccc2c(S(=O)(=O)NOCCCON)cccc12 [DansylMX, N-(3-(aminooxy)propoxy)-5-(dimethylamino)naphthalene-1-sulfonamide] | 200 | 340 | 540 | unacceptable dose-response | overall reduction in SSB activity (AP DNA): ca. 60%
4 | O=c1[nH]c(=O)n([C@H]2C[C@H](O)[C@@H](CO)O2)cc1F [FUDR, 5-fluoro-20-deoxyuridine] | – | – | – | – | increase in Cy7MX fluorescence intensity (AP sites) (DLD1 cells): ~9 fold
5 | CC1(C)C(/C=C/C=C/C=C/C=C2\N(CCCCS(=O)(=O)O)c3ccc4ccccc4c3C2(C)C)=[N+](CCCCS(=O)(=O)[O-])c2ccc3ccccc3c21 [ICG, indocyanine green] | – | – | – | – | fluorescence quantum yield Φ of the standard [2]: 0.132; fluorescence quantum yield of the standard [3]: 0.132
6 | Cc1cc(=O)oc2cc(OCCCON)ccc12 [MCMX, 7-(3-(aminooxy)propoxy)-4-methyl-2H-chromen-2-one] | 50 | 325 | 375 | superior to the other probes assayed in dose-response and overall efficacy | –
7 | CON [MX, methoxyamine] | – | – | – | – | ED50 of Cy7MX, excess of competitor ([4]; 1 h at 37° C., constant Cy7MX): 3000 × excess; ED50, molar ratio of probe to Cy7MX ([4]; calf thymus DNA heat/acid 45 min, FIG. 13): 3000 fold excess; Cy7MX fluorescent intensity after pretreatment (blocking) [5]: significantly reduced
8 | NOCCCOc1ccc2cc(-c3ccc([N+](=O)[O-])cc3)c(=O)oc2c1 [NpCMX, 7-(3-(aminooxy)propoxy)-3-(4-nitrophenyl)-2H-chromen-2-one] | 185 | 365 | 550 | superior to the other probes assayed in dose-response and overall efficacy | –
9 | NNC(=S)Nc1ccc(-c2c3ccc(=O)cc-3oc3cc(O)ccc23)c(C(=O)O)c1 [Probe F422, reference compound] | – | – | – | unacceptable dose-response | overall reduction in SSB activity (AP DNA): ~90%
